Source: PubChem BioAssay AID256 (DTP/NCI, 2004)
Several values for one entry are separate records, joined by “and”; a condition that tells them apart may be missing. Identical values can stand only once. Toxic doses and inconclusive results are not listed.

Test system: CD2F1 mice, L1210 leukemia ip, survival T/C
Assay: NCI In Vivo Anticancer Drug Screen. Data for tumor model L1210 Leukemia (intraperitoneal) in CD2F1 (CDF1) mice
Conditions: higher = longer survival
In short: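 Read-out first: treated-group measurement over vehicle-control measurement, expressed as a ratio. Animals bore a transplanted tumor line and were dosed with compound or vehicle.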

[1] = endpoint: mean survival time, dose: 100.0 mg/kg/injection, schedule: Q04DX003 (ip), vehicle: saline with Tween-80
[2] = endpoint: mean survival time, dose: 200.0 mg/kg/injection, schedule: Q04DX003 (ip), vehicle: saline with Tween-80
[3] = endpoint: mean survival time, dose: 100.0 mg/kg/injection, schedule: Q01DX001 (ip), vehicle: saline with Tween-80
[4] = endpoint: mean survival time, dose: 200.0 mg/kg/injection, schedule: Q01DX001 (ip), vehicle: saline with Tween-80
[5] = endpoint: mean survival time, dose: 400.0 mg/kg/injection, schedule: Q01DX001 (ip), vehicle: saline with Tween-80
[6] = endpoint: mean survival time, dose: 25.0 mg/kg/injection, schedule: Q01DX009 (ip), vehicle: saline with Tween-80
[7] = endpoint: mean survival time, dose: 100.0 mg/kg/injection, schedule: Q01DX009 (ip), vehicle: saline with Tween-80
[8] = endpoint: mean survival time, dose: 200.0 mg/kg/injection, schedule: Q01DX009 (ip), vehicle: saline with Tween-80
[9] = endpoint: mean survival time, dose: 100.0 mg/kg/injection, schedule: Q04DX002 (ip), vehicle: saline with Tween-80

SMILES: NC(=O)c1ncc[nH]c1=O
- T/C [1]: 103 % of control
- T/C [2]: 91 % of control

SMILES: NC(C(=O)O)C(O)c1ccc2c(c1)OCO2 (stereo not drawn)
- T/C [1]: 98 % of control
- T/C [2]: 92 % of control
- T/C (endpoint: mean survival time, dose: 400.0 mg/kg/injection, schedule: Q04DX003 (ip), vehicle: saline with Tween-80): 95 % of control

SMILES: O=c1[nH]c(=O)n(C2OC(COP(=O)(O)O)C(O)C2O)nc1SCc1ccccc1 (stereo not drawn)
- T/C (endpoint: median survival time, dose: 5.0 mg/kg/injection, schedule: Q01DX005 (ip), vehicle: distilled water + Tween-80): 109 % of control
- T/C (endpoint: median survival time, dose: 10.0 mg/kg/injection, schedule: Q01DX005 (ip), vehicle: distilled water + Tween-80): 98 % of control
- T/C (endpoint: median survival time, dose: 20.0 mg/kg/injection, schedule: Q01DX005 (ip), vehicle: distilled water + Tween-80): 96 % of control
- T/C (endpoint: median survival time, dose: 40.0 mg/kg/injection, schedule: Q01DX005 (ip), vehicle: distilled water + Tween-80): 105 % of control
- T/C (endpoint: median survival time, dose: 80.0 mg/kg/injection, schedule: Q01DX005 (ip), vehicle: distilled water + Tween-80): 117 % of control

SMILES: O=C1OC2(c3cc(I)c(O)c(I)c3Oc3c2cc(I)c(O)c3I)c2c(Cl)ccc(Cl)c21
- T/C [3]: 103 % of control
- T/C [4]: 87 % of control
- T/C [5]: 100 % of control

SMILES: CN(C)c1ccc(-c2nc3ccccc3s2)cc1
- T/C (endpoint: mean survival time, dose: 50.0 mg/kg/injection, schedule: Q01DX009 (ip), vehicle: Klucel (hydroxypropylcellulose) (HPC)): 106 % of control
- T/C (endpoint: mean survival time, dose: 100.0 mg/kg/injection, schedule: Q01DX009 (ip), vehicle: Klucel (hydroxypropylcellulose) (HPC)): 96 % of control
- T/C (endpoint: mean survival time, dose: 200.0 mg/kg/injection, schedule: Q01DX009 (ip), vehicle: Klucel (hydroxypropylcellulose) (HPC)): 98 % of control

SMILES: CN(C)c1ccc(/C=C/C(=O)Cc2ccccc2)cc1
- T/C (endpoint: mean survival time, dose: 100.0 mg/kg/injection, schedule: Q01DX001 (ip), vehicle: saline sonified): 100 % of control

SMILES: CN(C)CCCN1c2ccccc2Sc2ccc(C(F)(F)F)cc21
- T/C (endpoint: mean survival time, dose: 12.5 mg/kg/injection, schedule: Q01DX009 (ip), vehicle: saline): 106 % of control
- T/C (endpoint: mean survival time, dose: 12.5 mg/kg/injection, schedule: Q04DX003 (ip), vehicle: saline): 100 % of control
- T/C (endpoint: mean survival time, dose: 16.5 mg/kg/injection, schedule: Q01DX009 (ip), vehicle: saline with Tween-80): 103 % of control
- T/C (endpoint: mean survival time, dose: 25.0 mg/kg/injection, schedule: Q01DX001 (ip), vehicle: saline): 100 % of control
- T/C [6]: 88 % of control
- T/C (endpoint: mean survival time, dose: 25.0 mg/kg/injection, schedule: Q01DX009 (ip), vehicle: saline): 120 % of control
- T/C (endpoint: mean survival time, dose: 25.0 mg/kg/injection, schedule: Q04DX003 (ip), vehicle: saline): 115 % of control
- T/C (endpoint: mean survival time, dose: 37.5 mg/kg/injection, schedule: Q01DX009 (ip), vehicle: saline with Tween-80): 94 % of control
- T/C (endpoint: mean survival time, dose: 50.0 mg/kg/injection, schedule: Q01DX001 (ip), vehicle: saline): 104 % of control
- T/C (endpoint: mean survival time, dose: 50.0 mg/kg/injection, schedule: Q04DX003 (ip), vehicle: saline): 118 % of control

SMILES: CCC1(C)CCC2C(CCC3C(C)(C(=O)OC)CCCC23C)C12SCCS2 (stereo not drawn)
- T/C [3]: 86 % of control
- T/C [4]: 89 % of control
- T/C [5]: 96 % of control

SMILES: N#C[Se]C[Se]C#N
- T/C (endpoint: mean survival time, dose: 6.25 mg/kg/injection, schedule: Q01DX001 (ip), vehicle: saline with Tween-80): 104 % of control

SMILES: O/N=C(/Cl)c1ccccn1
- T/C (endpoint: mean survival time, dose: 1.88 mg/kg/injection, schedule: Q04DX003 (ip), vehicle: saline): 102 % of control
- T/C (endpoint: mean survival time, dose: 3.75 mg/kg/injection, schedule: Q04DX003 (ip), vehicle: saline): 94 % of control
- T/C (endpoint: mean survival time, dose: 7.5 mg/kg/injection, schedule: Q01DX001 (ip), vehicle: saline): 101 % of control
- T/C (endpoint: mean survival time, dose: 7.5 mg/kg/injection, schedule: Q04DX003 (ip), vehicle: saline): 94 % of control

SMILES: c1ccc(COC2CN3CCC2CC3)cc1 (stereo not drawn)
- T/C [6]: 100 % of control
- T/C (endpoint: mean survival time, dose: 50.0 mg/kg/injection, schedule: Q01DX009 (ip), vehicle: saline with Tween-80): 100 % of control

SMILES: CN(C)c1ccc(/C=N/NC(=O)c2ccccc2N)c(Cl)c1
- T/C [7]: 87 % of control
- T/C [8]: 87 % of control

SMILES: COC(=O)c1csc(CCN)n1
- T/C (endpoint: mean survival time, dose: 100.0 mg/kg/injection, schedule: Q01DX009 (ip), vehicle: saline): 102 % of control
- T/C (endpoint: mean survival time, dose: 200.0 mg/kg/injection, schedule: Q01DX009 (ip), vehicle: saline): 95 % of control
- T/C (endpoint: mean survival time, dose: 400.0 mg/kg/injection, schedule: Q01DX009 (ip), vehicle: saline): 92 % of control

SMILES: CCNC1=C(C)C(=O)C2=C(C1=O)C(COC(N)=O)C1(OC)C3NC3CN21 (stereo not drawn)
- T/C (endpoint: mean survival time, dose: 1.5 mg/kg/injection, schedule: Q01DX001 (ip), vehicle: water): 98 % of control
- T/C (endpoint: mean survival time, dose: 3.0 mg/kg/injection, schedule: Q01DX001 (ip), vehicle: water): 110 % of control
- T/C (endpoint: mean survival time, dose: 6.0 mg/kg/injection, schedule: Q01DX001 (ip), vehicle: water): 110 % of control
- T/C (endpoint: mean survival time, dose: 12.0 mg/kg/injection, schedule: Q01DX001 (ip), vehicle: water): 114 % of control

SMILES: Nc1nc(=O)n(CCCOc2cccc(NC(=O)c3ccccc3)c2)cc1-c1ccc(Cl)c(Cl)c1
- T/C [3]: 91 % of control
- T/C [4]: 94 % of control
- T/C [5]: 97 % of control

SMILES: Cc1cc(C)c(NS(=O)(=O)c2ccccc2)c(C)n1
- T/C [3]: 103 % of control
- T/C [4]: 104 % of control
- T/C [5]: 104 % of control

SMILES: CCC1(O)C(=O)OCc2c1cc1n(c2=O)Cc2cc3cc(Cl)ccc3nc2-1 (stereo not drawn)
- T/C (endpoint: median survival time, dose: 5.0 mg/kg/injection, schedule: Q04DX002 (ip), vehicle: saline with Tween-80): 196 % of control
- T/C (endpoint: median survival time, dose: 10.0 mg/kg/injection, schedule: Q04DX002 (ip), vehicle: saline with Tween-80): 264 % of control and 280 % of control
- T/C (endpoint: median survival time, dose: 40.0 mg/kg/injection, schedule: Q04DX002 (ip), vehicle: saline with Tween-80): 89 % of control

SMILES: CCN1C=C/C(=C/c2cc3scc(-c4ccccc4)[n+]3c3ccccc23)c2ccccc21
- T/C (endpoint: mean survival time, dose: 0.01 mg/kg/injection, schedule: Q01DX009 (ip), vehicle: saline): 97 % of control
- T/C (endpoint: mean survival time, dose: 0.02 mg/kg/injection, schedule: Q01DX009 (ip), vehicle: saline): 100 % of control
- T/C (endpoint: mean survival time, dose: 0.04 mg/kg/injection, schedule: Q01DX009 (ip), vehicle: saline): 103 % of control

SMILES: Nc1nc(=O)n(C2OC(CO)C(O)C2O)c2nc[nH]c12 (stereo not drawn)
- T/C (endpoint: mean survival time, dose: 6.25 mg/kg/injection, schedule: Q01DX005 (ip), vehicle: water): 98 % of control
- T/C (endpoint: mean survival time, dose: 12.5 mg/kg/injection, schedule: Q01DX005 (ip), vehicle: water): 90 % of control
- T/C (endpoint: mean survival time, dose: 25.0 mg/kg/injection, schedule: Q01DX005 (ip), vehicle: water): 88 % of control
- T/C (endpoint: mean survival time, dose: 50.0 mg/kg/injection, schedule: Q01DX005 (ip), vehicle: water): 92 % of control and 93 % of control
- T/C (endpoint: mean survival time, dose: 100.0 mg/kg/injection, schedule: Q01DX005 (ip), vehicle: water): 87 % of control and 90 % of control

SMILES: NC(=O)COc1ccc(Cl)cc1Cl
- T/C [3]: 98 % of control
- T/C [7]: 94 % of control
- T/C [4]: 94 % of control
- T/C [8]: 96 % of control
- T/C [5]: 94 % of control

SMILES: CO[C@@]12[C@@H]3N[C@@H]3CN1C1=C(C(=O)C(N(C)c3ccc(O)cc3)=C(C)C1=O)[C@@H]2COC(N)=O
- T/C (endpoint: median survival time, dose: 3.0 mg/kg/injection, schedule: Q01DX001 (ip), vehicle: distilled water + Tween-80): 100 % of control
- T/C (endpoint: median survival time, dose: 6.0 mg/kg/injection, schedule: Q01DX001 (ip), vehicle: distilled water + Tween-80): 121 % of control
- T/C (endpoint: median survival time, dose: 12.0 mg/kg/injection, schedule: Q01DX001 (ip), vehicle: distilled water + Tween-80): 117 % of control and 102 % of control
- T/C (endpoint: median survival time, dose: 24.0 mg/kg/injection, schedule: Q01DX001 (ip), vehicle: distilled water + Tween-80): 113 % of control

SMILES: C=C1CN(C(=O)NCCCl)C1
- T/C [3]: 100 % of control
- T/C [4]: 100 % of control
- T/C [5]: 97 % of control

SMILES: COc1ccccc1NC1=NCCO1
- T/C (endpoint: mean survival time, dose: 25.0 mg/kg/injection, schedule: Q04DX002 (ip), vehicle: saline with Tween-80): 105 % of control
- T/C (endpoint: mean survival time, dose: 50.0 mg/kg/injection, schedule: Q04DX002 (ip), vehicle: saline with Tween-80): 97 % of control
- T/C [3]: 90 % of control
- T/C [9]: 94 % of control

SMILES: CCc1ccc(NC(=O)/C=C/c2ccccc2)cc1
- T/C [9]: 93 % of control
- T/C (endpoint: mean survival time, dose: 200.0 mg/kg/injection, schedule: Q04DX002 (ip), vehicle: saline with Tween-80): 89 % of control
- T/C (endpoint: mean survival time, dose: 400.0 mg/kg/injection, schedule: Q04DX002 (ip), vehicle: saline with Tween-80): 104 % of control

SMILES: Cc1ccccc1Sc1cc2ccccc2c2ccccc12
- T/C (endpoint: mean survival time, dose: 100.0 mg/kg/injection, schedule: Q04DX003 (ip), vehicle: saline): 97 % of control
- T/C (endpoint: mean survival time, dose: 200.0 mg/kg/injection, schedule: Q04DX003 (ip), vehicle: saline): 100 % of control
- T/C (endpoint: mean survival time, dose: 400.0 mg/kg/injection, schedule: Q04DX003 (ip), vehicle: saline): 100 % of control

SMILES: O=C(NC(CCO)C(=O)O)OCc1ccccc1 (stereo not drawn)
- T/C (endpoint: mean survival time, dose: 75.0 mg/kg/injection, schedule: Q04DX003 (ip), vehicle: saline): 95 % of control
- T/C (endpoint: mean survival time, dose: 150.0 mg/kg/injection, schedule: Q04DX003 (ip), vehicle: saline): 98 % of control
- T/C (endpoint: mean survival time, dose: 300.0 mg/kg/injection, schedule: Q04DX003 (ip), vehicle: saline): 101 % of control
